# According to publication PMC9154192 (PLoS Biology, 2022):
# Values joined by “and” are separate entries in the source; they are usually repeats but may differ in a detail not shown here. Identical values can stand only once. Like-named read-outs stand apart in the source and are kept apart here.
# Legend:
# [1] = test system: M. bovis BCG strains; assay: organism not typed; format: cell-based, Mycobacterium bovis BCG
# [2] = test system: GFP-expressing M. tuberculosis; format: cell-based, Mycobacterium tuberculosis; conditions: 1 μg/ml
# [3] = format: cell-based
# [4] = for % MNPCE (Mean ± S.D.) / % PCE (Mean ± S.D.): 24 hours after dosing
# Protocol: Genotoxicity studies for PP2S were performed according to the ICH (International conference on harmonization) harmonized tripartite guideline, S2(R1). Regarding previous reports, the bacterial reverse mutation test, chromosomal abnormality test, and mouse bone marrow micronucleus test were performed with slight modifications.
# [5] = format: in vivo, female rats; design: unit not given here; conditions: for Plasma concentration, individual animals: female rats 1-6, single oral 100 mg/kg, 100 mg/kg; for Plasma concentration, Average: female rats, average of 6 animals
# [6] = TA100, 4.88 μg/plate, absence of S9 mix
# [7] = TA100, 4.88 μg/plate, presence of S9 mix
# [8] = TA100, 78.1 μg/plate, absence of S9 mix
# [9] = TA100, 78.1 μg/plate, presence of S9 mix
# [10] = TA100, 313 μg/plate, absence of S9 mix
# [11] = TA100, 313 μg/plate, presence of S9 mix
# [12] = TA1535, 4.88 μg/plate, absence of S9 mix
# [13] = TA1535, 4.88 μg/plate, presence of S9 mix
# [14] = TA1535, 78.1 μg/plate, absence of S9 mix
# [15] = TA1535, 78.1 μg/plate, presence of S9 mix
# [16] = TA1535, 313 μg/plate, absence of S9 mix
# [17] = TA1535, 313 μg/plate, presence of S9 mix
# [18] = TA1537, 4.88 μg/plate, absence of S9 mix
# [19] = TA1537, 4.88 μg/plate, presence of S9 mix
# [20] = TA1537, 78.1 μg/plate, absence of S9 mix
# [21] = TA1537, 78.1 μg/plate, presence of S9 mix
# [22] = TA1537, 313 μg/plate, absence of S9 mix
# [23] = TA1537, 313 μg/plate, presence of S9 mix
# [24] = WP2uvrA (pKM101), 4.88 μg/plate, absence of S9 mix
# [25] = WP2uvrA (pKM101), 4.88 μg/plate, presence of S9 mix
# [26] = WP2uvrA (pKM101), 78.1 μg/plate, absence of S9 mix
# [27] = WP2uvrA (pKM101), 78.1 μg/plate, presence of S9 mix
# [28] = WP2uvrA (pKM101), 313 μg/plate, absence of S9 mix
structure (smiles),measurement,setting,value
"NNC(=O)c1ccncc1 [INH, isoniazid, reference compound]",MIC,[1],0.2 mg/L
"CCCCOc1ccc2cc(CN3C(=O)CC[C@H]3C(=O)OC)c3cc(OC)c(OC)cc3c2c1 [PP2S, Methyl (S)-1-((3-butoxy-6,7-dimethoxyphenanthren-9-yl)methyl)-5-oxopyrrolidine-2-carboxylate]",green signal of GFP-expressing M. tuberculosis in infected cells,[2],decrease in green signal
same,Individual revertant colony counts,[3]; [6],77 colonies per plate and 71 colonies per plate
same,Mean revertant colonies,[3]; [6],74 colonies per plate
same,Individual revertant colony counts,[3]; [7],116 colonies per plate and 111 colonies per plate
same,Mean revertant colonies,[3]; [7],114 colonies per plate
same,Individual revertant colony counts,[3]; [8],78 colonies per plate and 85 colonies per plate
same,Mean revertant colonies,[3]; [8],82 colonies per plate
same,Individual revertant colony counts,[3]; [9],111 colonies per plate and 107 colonies per plate
same,Mean revertant colonies,[3]; [9],109 colonies per plate
same,Individual revertant colony counts,[3]; [10],98 colonies per plate and 95 colonies per plate
same,Mean revertant colonies,[3]; [10],97 colonies per plate
same,Individual revertant colony counts,[3]; [11],111 colonies per plate and 107 colonies per plate
same,Mean revertant colonies,[3]; [11],109 colonies per plate
same,Individual revertant colony counts,[3]; [12],18 colonies per plate and 19 colonies per plate
same,Mean revertant colonies,[3]; [12],19 colonies per plate
same,Individual revertant colony counts,[3]; [13],10 colonies per plate and 12 colonies per plate
same,Mean revertant colonies,[3]; [13],11 colonies per plate
same,Individual revertant colony counts,[3]; [14],18 colonies per plate and 19 colonies per plate
same,Mean revertant colonies,[3]; [14],19 colonies per plate
same,Individual revertant colony counts,[3]; [15],17 colonies per plate and 15 colonies per plate
same,Mean revertant colonies,[3]; [15],16 colonies per plate
same,Individual revertant colony counts,[3]; [16],15 colonies per plate and 17 colonies per plate
same,Mean revertant colonies,[3]; [16],16 colonies per plate
same,Individual revertant colony counts,[3]; [17],16 colonies per plate and 15 colonies per plate
same,Mean revertant colonies,[3]; [17],16 colonies per plate
same,Individual revertant colony counts,[3]; [18],10 colonies per plate and 11 colonies per plate
same,Mean revertant colonies,[3]; [18],11 colonies per plate
same,Individual revertant colony counts,[3]; [19],16 colonies per plate and 14 colonies per plate
same,Mean revertant colonies,[3]; [19],15 colonies per plate
same,Individual revertant colony counts,[3]; [20],11 colonies per plate and 10 colonies per plate
same,Mean revertant colonies,[3]; [20],11 colonies per plate
same,Individual revertant colony counts,[3]; [21],18 colonies per plate and 17 colonies per plate
same,Mean revertant colonies,[3]; [21],18 colonies per plate
same,Individual revertant colony counts,[3]; [22],9 colonies per plate and 8 colonies per plate
same,Mean revertant colonies,[3]; [22],9 colonies per plate
same,Individual revertant colony counts,[3]; [23],18 colonies per plate and 19 colonies per plate
same,Mean revertant colonies,[3]; [23],19 colonies per plate
same,Individual revertant colony counts,[3]; [24],92 colonies per plate and 86 colonies per plate
same,Mean revertant colonies,[3]; [24],89 colonies per plate
same,Individual revertant colony counts,[3]; [25],149 colonies per plate and 156 colonies per plate
same,Mean revertant colonies,[3]; [25],153 colonies per plate
same,Individual revertant colony counts,[3]; [26],87 colonies per plate and 94 colonies per plate
same,Mean revertant colonies,[3]; [26],91 colonies per plate
same,Individual revertant colony counts,[3]; [27],156 colonies per plate and 167 colonies per plate
same,Mean revertant colonies,[3]; [27],162 colonies per plate
same,Individual revertant colony counts,[3]; [28],91 colonies per plate and 93 colonies per plate
same,Mean revertant colonies,[3]; [28],92 colonies per plate
same,Individual revertant colony counts,"[3]; WP2uvrA (pKM101), 313 μg/plate, presence of S9 mix",162 colonies per plate and 165 colonies per plate
same,genotoxicity,[3]; bacterial reverse mutation test,did not show genotoxicity
same,Mean body weights ± S.D.,"[4]; 500 mg/kg P.O., 0 day",35.9 ± 1.16 g
same,Mean body weights ± S.D.,"[4]; 500 mg/kg P.O., 1 day",35.5 ± 1.48 g
same,% MNPCE (Mean ± S.D.),[4]; 500 mg/kg P.O.,0.055 ± 0.037%
same,% PCE (Mean ± S.D.),[4]; 500 mg/kg P.O.,30.5 ± 2.16%
same,Mean body weights ± S.D.,"[4]; 1000 mg/kg P.O., 0 day",35.9 ± 1.07 g
same,Mean body weights ± S.D.,"[4]; 1000 mg/kg P.O., 1 day",36.1 ± 1.42 g
same,% MNPCE (Mean ± S.D.),[4]; 1000 mg/kg P.O.,0.060 ± 0.034%
same,% PCE (Mean ± S.D.),[4]; 1000 mg/kg P.O.,31.8 ± 2.49%
same,Mean body weights ± S.D.,"[4]; 2000 mg/kg P.O., 0 day",35.9 ± 1.14 g
same,Mean body weights ± S.D.,"[4]; 2000 mg/kg P.O., 1 day",34.9 ± 1.63 g
same,% MNPCE (Mean ± S.D.),[4]; 2000 mg/kg P.O.,0.055 ± 0.021%
same,% PCE (Mean ± S.D.),[4]; 2000 mg/kg P.O.,33.6 ± 1.67%
same,RPD (relative population doubling),"[4]; S9 mix +, Trt-Rec 6-18 hr, 125 µg/mL",69.4%
same,RPD (relative population doubling),"[4]; S9 mix +, Trt-Rec 6-18 hr, 250 µg/mL",67.4%
same,RPD (relative population doubling),"[4]; S9 mix -, Trt-Rec 6-18 hr, 125 µg/mL",78.8%
same,RPD (relative population doubling),"[4]; S9 mix -, Trt-Rec 6-18 hr, 250 µg/mL",74.3%
same,RPD (relative population doubling),"[4]; S9 mix -, Trt-Rec 24-0 hr, 125 µg/mL",46.9%
same,RPD (relative population doubling),"[4]; S9 mix -, Trt-Rec 24-0 hr, 250 µg/mL",38.6%
same,genotoxicity,[4]; bone marrow micronucleus formation test,did not show genotoxicity
same,"Plasma concentration, individual animals",[5]; 2 h,237.59
same,"Plasma concentration, individual animals",[5]; 4 h,316.47
same,"Plasma concentration, individual animals",[5]; 6 h,323.47
same,"Plasma concentration, individual animals",[5]; 8 h,253.32
same,"Plasma concentration, individual animals",[5]; 10 h,217.50
same,"Plasma concentration, individual animals",[5]; 12 h,210.07
same,"Plasma concentration, individual animals",[5]; 14 h,174.31
same,"Plasma concentration, individual animals",[5]; 16 h,211.29
same,"Plasma concentration, individual animals",[5]; 18 h,122.20
same,"Plasma concentration, individual animals",[5]; 20 h,116.07
same,"Plasma concentration, individual animals",[5]; 22 h,87.81
same,"Plasma concentration, individual animals",[5]; 24 h,63.19
same,"Plasma concentration, Average","[5]; single oral 100 mg/kg, 2 h",320.00
same,"Plasma concentration, Average","[5]; single oral 100 mg/kg, 4 h",432.00
same,"Plasma concentration, Average","[5]; single oral 100 mg/kg, 6 h",276.00
same,"Plasma concentration, Average","[5]; single oral 100 mg/kg, 8 h",154.00
same,"Plasma concentration, Average","[5]; single oral 100 mg/kg, 10 h",132.00
same,"Plasma concentration, Average","[5]; single oral 100 mg/kg, 12 h",110.00
same,"Plasma concentration, Average","[5]; single oral 100 mg/kg, 14 h",97.00
same,"Plasma concentration, Average","[5]; single oral 100 mg/kg, 16 h",81.00
same,"Plasma concentration, Average","[5]; single oral 100 mg/kg, 18 h",78.00
same,"Plasma concentration, Average","[5]; single oral 100 mg/kg, 20 h",67.00
same,"Plasma concentration, Average","[5]; single oral 100 mg/kg, 22 h",52.00
same,"Plasma concentration, Average","[5]; single oral 100 mg/kg, 24 h",35.00
same,"Plasma concentration, Average","[5]; single oral 150 mg/kg, 18 h",85.00
same,"Plasma concentration, Average","[5]; single oral 150 mg/kg, 20 h",76.00
same,"Plasma concentration, Average","[5]; single oral 150 mg/kg, 22 h",63.00
same,"Plasma concentration, Average","[5]; single oral 150 mg/kg, 24 h",42.00
